# Measurements reported in patent US20040115800A1, “Selectable marker for genetically engineered cells and tissues” (priority 2003, published 2004).
# Columns and labels:
# untransduced A549 cells = assay: Growth inhibition assay (MTT), parental A549 cells; format: cell-based, human; settings: 4 days
# Description: A549 human lung carcinoma cells, obtained from American Type Culture Collection (ATCC), were maintained in RPMI 1640 medium (Canadian Life Technologies) supplemented with 10% heat-inactivated FBS.
# (§1) Gene-modified A549 cells were plated in 96-well flat-bottom tissue culture dishes at a density of 1500 cells per well. Various concentrations of ARA-C or dFdC (Lilly Research Laboratories, Indianapolis, Ind.) were added to cells in a final volume of 100 μl RPMI/10% FBS. Cells were placed at 37° C. and 4 days later exposed to 20 μl of a solution containing 3-(4,5-deimethylthiazol-2-yl)-2,5-diphenyltetrazolium bromide, i.e. MTT, for 4 hours at 37° C., and subsequently to 100 μl of a solubilization buffer (50% N,N-dimethylformamide, 20% SDS) for approximately 15 hours. The optical density was then measured at 570 nm with reference at 630 nm using a multi-well plate reader, thus providing an assessment of the percentage of surviving cells based on the cleavage of MTT by the mitochondrial dehydrogenases of living cells to the detectable formazan. Percent cell survival was ascertained using the following equation: [formula]
# A549-IRES-EGFP cells = assay: Growth inhibition assay (MTT), control-vector A549 cells; format: cell-based, human; settings: 4 days
# Description: (§2) . […] Five days following the last transduction round, flow cytometry analysis was performed to determine gene transfer efficiency and transgene expression as evaluated by GFP fluorescence. Stably transduced A549-CD-IRES-EGFP cells were subsequently expanded in complete media only, as well as in the presence of two different concentrations of ARA-C, 1 μM and 2.5 μM, for 12 days.
# as §1
# A549-CD-IRES-EGFP cells = assay: Growth inhibition assay (MTT), CD gene-modified A549 cells; format: cell-based, human; settings: for % cell survival: 4 days, MTT
# Description: as §2, §1
# [1] = tested on: 2.5 μM ARA-C selected A549-CD-IRES-EGFP cells; assay: Growth inhibition assay (MTT), ARA-C-selected CD gene-modified A549 cells; format: cell-based, human; settings: 4 days
# Description: as §2, §1
# [2] = tested on: primary human lymphocytes transduced with IRES-EGFP; assay: Growth suppression assay (trypan blue), control-vector lymphocytes; format: cell-based; settings: two weeks
# Text: (§3) Primary human lymphocytes were isolated from peripheral blood by Ficoll Hypaque™ centrifugation and plated at a cell density of ˜1×10^6 cells/ml in RPMI supplemented with 10% FBS, 50 U/ml Pen/Strep, and 200 U/ml human IL-2. The next day, lymphocytes were activated with phytohemagglutinin (PHA) for 72 hrs and subsequently co-cultivated over subconfluent 293GPG-CD-IRES-EGFP or control 293GPG-IRES-EGFP virus producers tetracycline withdrawn three days earlier for optimal high titer virion generation. Lipofectaminel was added for a final concentration of 6 μg/ml, and co-cultivation permitted to proceed for 48 hours. Lymphocytes were then carefully collected and three days later plated at a density of 600 000 cells per well of 48-well tissue culture dishes in the absence or presence of various concentrations of ARA-C in a final volume of 800 μl) complete media. After a two week period, viable cells were enumerated by trypan blue exclusion and cell survival measured as such: % cell survival=(number of cells in test well/number of cells grown in media only)×100. (Flow cytometry analysis for CD3 expression was conducted and all cells confirmed to be lymphocytes.)
# [3] = tested on: primary human lymphocytes transduced with CD-IRES-EGFP; assay: Growth suppression assay (trypan blue), CD gene-modified lymphocytes; format: cell-based; settings: two weeks
# Text: as §3
# [4] = tested on: primary mouse marrow stromal cells; assay: In vitro selection and enrichment assay of CD gene-modified marrow stroma (flow cytometry); format: cell-based; settings: for % GFP+ cells: 10% CD-IRES-EGFP stroma mixture (11.7% without ARA-C); for mean GFP fluorescence: 10% CD-IRES-EGFP stroma mixture (13.0±3.0 without ARA-C)
# Description: One female C57BI/6 mouse was sacrificed by CO2 inhalation and bone marrow cells harvested by flushing the hind leg femurs and tibias with DMEM™ supplemented with 10% FBS and 50 U/ml Pen/Strep. Whole marrow was plated in 10 cm (diameter) tissue culture dishes and five days later, the nonadherent hematopoietic cells were discarded and the adherent bone marrow stromal cells cultured (for ˜3 months) at 37° C. with 5% CO2. Supernatant containing virions from subconfluent GP+envAM12-CD-IRES-EGFP or from control GP+envAM12-Neo^R-IRES-EGFP producers was placed over marrow stromal cells plated at subconfluence. Transduction was carried out twice a day for three successive days in the presence of 6 μg/ml Lipofectamine™. Over 72 hours pursuing to the last transduction round, flow cytometry analysis for GFP expression was performed to evaluate the gene transfer efficiency.
# Drug exposure was ceased 7 days later, and cells expanded for an additional week in DMEMI with 10% FBS and 50U/ml Pen/Strep and analysed by flow cytometry analysis. […] Pursuant to a 1-week drug exposure (preventing total confluence by cell passaging) and subsequent week of cell expansion, percent GFP positive cells and mean GFP fluorescence were evaluated by flow cytometry analysis.
SMILES,"% cell survival (untransduced A549 cells; ARA-C 1 μM, untransduced A549, MTT)",% cell survival (A549-IRES-EGFP cells; ARA-C 1 μM),survival of A549-CD-IRES-EGFP relative to control cells (A549-CD-IRES-EGFP cells; ARA-C 1 μM),"% cell survival (A549-CD-IRES-EGFP cells; ARA-C 1 μM, A549-CD-IRES-EGFP without post-transduction drug selection)","% cell survival ([1]; ARA-C 1 μM, CD-modified A549 previously selected in 2.5 μM ARA-C for 12 days, MTT)","% cell survival ([2]; ARA-C 1 μM, IRES-EGFP transduced lymphocytes)","% cell survival ([2]; ARA-C 5 μM, IRES-EGFP-modified lymphocytes)",% cell survival ([3]; ARA-C 1 μM),% cell survival ([3]; ARA-C 5 μM),% GFP+ cells ([4]; 0.25 μM ARA-C 1 week + 1 week culture),% GFP+ cells ([4]; 2.5 μM ARA-C 1 week + 1 week culture),effect on untransduced and NeoR-IRES-EGFP modified stroma ([4]; ARA-C 2.5 μM (printed 2.5 CM)),mean GFP fluorescence ([4]; selected in 1 μM ARA-C),mean GFP fluorescence ([4]; selected in 2.5 μM ARA-C),"% cell survival (untransduced A549 cells; dFdC 0.1M (so in the source), A549, MTT)",% cell survival (A549-IRES-EGFP cells; dFdC 0.1M (so in the source)),"% cell survival (A549-CD-IRES-EGFP cells; dFdC 1 μM, unselected A549-CD-IRES-EGFP)","% cell survival (A549-CD-IRES-EGFP cells; dFdC same concentration (0.1), A549-CD-IRES-EGFP unselected)","% cell survival ([1]; dFdC 0.1 μM, 2.5 μM ARA-C selected CD-IRES-EGFP modified A549, MTT)","% cell survival ([1]; dFdC 1 μM, 2.5 μM ARA-C selected cells, MTT)"
"Nc1ccn([C@@H]2O[C@H](CO)[C@@H](O)[C@@H]2O)c(=O)n1 [ARA-C, cytosine arabinoside]",15.3±0.6%,10.6±0.4%,over 3 fold,47.4±1.9%,70.7±1.3%,5.5±1.7%,0.1±0.1%,87.5±7.2%,98.1 ± 4.2%,51.5%,99.6%,completely eradicate,48.3±6.5,99.3±3.3,–,–,–,–,–,–
Nc1ccn([C@@H]2O[C@H](CO)[C@@H](O)C2(F)F)c(=O)n1 [dFdC],–,–,–,–,–,–,–,–,–,–,–,–,–,–,15.1±0.5%,10.7±0.4%,17.2±0.7%,86.4±2.4%,92.1±1.7%,53.3±1.8%
